Like-named read-outs stand apart in the source and are kept apart here.
Experiments:
MEK1 [1] = biological target: T1, MEK1 (Homo sapiens, UniProt Q02750); details: cited from earlier work
ERK2 [2] = biological target: ERK2 (UniProt P28482); format: biochemical; set-up: Ki; other: ERK2; 1 mM ATP; kinact; T1/2; kinact/Ki; "the target Cys 172 residue; details: ERK2
Experimental: (§1) In either case, the time dependent inactivation can be dampened by the presence of a competing substrate, in this case ATP.
(§2) For covalent inhibitors, plots of log (activity) versus time provide apparent first-order rate constants (kobsd) of enzyme activity loss. If these assays are performed at varying concentrations of inhibitor, a series of first-order plots is obtained and kobsd obtained at each inhibitor concentration. […] Such molecules may be competitive inhibitors but should not show time-dependent inactivation.
(§3) Inhibition progress curve analysis was performed using continuous, colorimetric, or fluorimetric assays. All experiments were done at 1 mM ATP, with the exception of KDR (at 5 mM ATP).
(§4) MEK1 assays were performed using pre-incubation experiments with radioactive [^32P]ATP and filter binding of product. All other kinases were analyzed using progress curve analysis from a continuous spectrophotometric assay.

ERK2 [3] = biological target: ERK2 (UniProt P28482); format: biochemical; set-up: other: calculated for 0.1 μM for ~10 minutes; Ki; other: ERK2; kinact/Ki; "the target Cys 172 residue
Experimental: as §1, §2, §3, §4

MEK1 [4] = biological target: T1, MEK1; assay: Time-dependent kinase inhibition kinetics (pre-incubation, [32P]ATP filter binding); format: biochemical
Experimental: Typically, one measures the increase in inhibition of protein kinase activity in the presence of inhibitor over time. In one method, aliquots of a “pre-incubation” reaction mixture containing enzyme and inhibitor are assayed for activity (initial velocities) over time; increased inhibition or decreased initial velocities will be observed over time as the Michael adduct forms (Walsh, C, Enzyme Reaction Mechanisms, W.H. Freeman & Co., 1979, pp 86-94). In a second method, the time dependent loss of activity is measured as “progress curves” that measure and analyze product formed (e.g. ADP) versus time (Morrison & Walsh, Adv. Enzymol Relat Areas Mol. Biol. 1988, 61, 201-301). In either case, the time dependent inactivation can be dampened by the presence of a competing substrate, in this case ATP.
MEK1 and many other protein kinases that can be targets of the compounds useful in the methods of the invention can be obtained commercially (Invitrogen; Carlsbad, Calif.) or prepared using standard molecular biology techniques. After activation by phosphorylation, they are assayed for their ability to phosphorylate a target kinase or surrogate substrate. For example, MEK1 can be assayed in a mixture containing MEK1 (30 nM) and ERK1 (2 μM), [γ-^32P]ATP (10 uM) and MgCl2 in Mops buffer pH 7.6. Phosphorylation can be measured by isolating [γ-^32P]-phosphorylated ERK1 on phosphocellulose paper, and counting radioactive product. Alternatively, a coupled enzyme system may be used in which a product of the kinase reaction, such as ADP, is measured by analysis with a secondary system that converts that product (e.g. ADP) to an easily measurable entity (e.g. NADH); often, such coupled systems can be measured by convenient spectrophotometry assays.
To measure time-dependent inhibition using the “pre-incubation method”, MEK1 (or other kinase) is incubated with varying amounts of the lactone inhibitor; […]. Aliquots are removed at various times, added to a solution containing substrates [γ-^32P]ATP, ERK1 (or other substrate), and the other components of the reaction, and initial rates are determined as a measure of remaining enzyme activity.
For covalent inhibitors, plots of log (activity) versus time provide apparent first-order rate constants (kobsd) of enzyme activity loss. If these assays are performed at varying concentrations of inhibitor, a series of first-order plots is obtained and kobsd obtained at each inhibitor concentration. To measure time-dependent inhibition using the “progress-curve method” (see references cited above and Kuzmic et al., Methods Enzymol 2004; 383: 366-81), ERK (or other kinase) is treated with varying amounts of the lactone inhibitor, and the formation of ADP is measured continuously by a coupled assay. […] Such molecules may be competitive inhibitors but should not show time-dependent inactivation.
Those of skill in the art will recognize that within the set of compounds useful in the methods of the invention, significant variability in specificity can be achieved, allowing one to identify optimal compounds for different applications. Inhibition progress curve analysis was performed using continuous, colorimetric, or fluorimetric assays. All experiments were done at 1 mM ATP, with the exception of KDR (at 5 mM ATP).
as §4

[5] = test system: phosphorylated ERK in COLO829 cells (B-Raf V599E); assay: Phospho-ERK Western blot in COLO829 cells; format: cell-based, human
Experimental: (§5) The downstream effects of inhibition of a particular kinase (e.g. MEK) can be established by measuring the phosphorylation state of several proteins that require that kinase for phosphorylation (e.g. ERK1). Cultured cells are treated with hypothemycin or other lactone analogs described herein, and Western blots of cell extracts are probed with antibodies specific for the unmodified and phosphorylated forms of the downstream targets. As an example, the effects of hypothemycin on MEK1/2 can be determined by measuring the level of ERK1/2 phosphorylation.
Referring to FIG. 8, B-Raf V599E mutant melanoma cell line COLO829 was incubated with 1 microM hypothemycin for 2, 5, 10, 15, 30, and 60 minutes. The cells were then lysed and the proteins extracted. Equal amounts of total protein from each sample were separated by SDS-PAGE followed by electroblotting to a PVDF membrane. The levels of phospho-ERK present in each extract were visualized by incubation of the membrane with anti-phosphoERK antibody (Cell Signaling Technologies) followed by incubation with an HRP linked secondary antibody. Phospho-ERK containing bands were detected by autoradiography using the ECL Western detection kit (Amersham).

[6] = test system: phosphorylated FLT3, MEK and ERK in MV-4-11 (FLT3(ITD)); assay: Phosphorylation state of kinases in MV-4-11 cells; format: cell-based; details: MV-4-11, FLT3(ITD) mutation
Experimental: as §5

A375 xenograft = assay: B-Raf mutant melanoma (A375) xenograft model; format: in vivo
From the text: The sensitivity of B-Raf mutated cancer cell lines to RALs was confirmed in a B-Raf mutant melanoma (A375) xenograft model.

T1 sequence (Q02750 whole entry): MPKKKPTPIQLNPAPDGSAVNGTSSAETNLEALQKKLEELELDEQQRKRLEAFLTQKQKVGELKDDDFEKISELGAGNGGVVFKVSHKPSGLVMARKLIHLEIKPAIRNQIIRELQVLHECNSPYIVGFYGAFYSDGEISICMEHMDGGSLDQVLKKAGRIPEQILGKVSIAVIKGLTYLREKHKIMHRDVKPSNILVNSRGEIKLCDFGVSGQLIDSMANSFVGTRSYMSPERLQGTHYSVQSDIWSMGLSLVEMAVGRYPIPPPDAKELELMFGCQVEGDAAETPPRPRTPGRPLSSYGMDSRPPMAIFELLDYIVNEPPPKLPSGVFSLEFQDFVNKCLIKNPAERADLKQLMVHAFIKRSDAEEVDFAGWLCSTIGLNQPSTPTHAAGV

## COc1cc(O)c2c(c1)[C@H]1O[C@@H]1C[C@H](O)[C@H](O)C(=O)/C=C\C[C@H](C)OC2=O [Hypothemycin, hypothemycin]
MEK1 [1]
  potency as MEK1 inhibitor relative to L-783,277 (fold less potent): 4 fold
ERK2 [2]
  kinact/Ki: 1900 M⁻¹ s⁻¹
ERK2 [2]; 1 mM ATP
  Ki: 2.7 µM
  kinact: 0.005 s⁻¹
ERK2 [3]; ERK2
  Ki: 2 µM
  kinact/Ki: 1.9E+03
ERK2 [3]; calculated for 0.1 μM for ~10 minutes
  ERK activity inhibited: < 5%
MEK1 [4]
  kinact/KI: 130000 M⁻¹ s⁻¹
MEK1 [4]; 1 mM ATP
  Ki: 0.019 µM
MEK1 [4]; 1 mM ATP, read-out: kinact
  kinact: 0.003 s⁻¹
[5]; COLO829 (and other BRAF mutant cells)
  time phosphorylated active ERK is absent after removal of the inhibitor: ~24 h
[5]; COLO829, concentrations several-fold lower than Kd / sub-micromolar
  ERK pathway after a 10 min. exposure: completely shut down
[5]; COLO829 cells, 1 microM hypothemycin, FIG. 8
  time to depletion of the phosphorylated form of ERK: ≤ 10 min
[6]
  phosphorylated forms of FLT3, MEK and ERK: loss of phosphorylated forms
A375 xenograft; administered daily at 15 mg/kg or 20 mg/kg, FIG. 6
  growth of the A375 xenograft relative to vehicle alone: significantly inhibits the growth
A375 xenograft; hypothemycin at both dosages vs Bayer 43-9006 25 mg/kg or 50 mg/kg every other day
  A375 xenograft growth inhibition compared with Bayer 43-9006: significantly better

Reference: patent publication US20100004234A1, “SPECIFIC KINASE INHIBITORS” (Kosan Biosciences Incorporated, priority 2004, published 2010)
